The values that follow come from patent US20220259252A1, “4'-ETHYNYL-2'-DEOXYADENOSINE DERIVATIVES AND THEIR USE IN HIV THERAPY” (priority 2019, published 2022).

The subject of experiment [1] is HIV pseudotyped virus (NL4-3 provirus, luciferase reporter), WT, in U373 cells expressing human CD4 and CXCR4 or CCR5. The experiment can be described thus: Pseudotyped virus (PSV) assay, WT. As to conditions: Human immunodeficiency virus 1, NL43, U373 MG, 72 h, read-out: WT IC50.
Text: A pseudotyped virus assay (PSV) was used to assess the potency of the HIV inhibitor. Replication defective virus was produced by co-transfection of a plasmid containing an NL4-3 provirus [containing a mutation in the envelope open reading frame (ORF) and a luciferase reporter gene replacing the nef ORF] and a CMV-promoter expression plasmid containing an ORF for various HIV gp160 envelope clones. The harvested virus was stored at −80 C in small aliquots and the titer of the virus measured to produce a robust signal for antiviral assays.
The PSV assay was performed by using U373 cells stably transformed to express human CD4, the primary receptor for HIV entry and either human CXCR4 or human CCR5 which are the co-receptors required for HIV entry as target cells for infection. […] This dose-range was applied to U373 cells and the pre-made pseudotyped virus added. The amount of luciferase signal produced after 3 days of culture was used to reflect the level of pseudotyped virus infection. An IC50, or the concentration of inhibitor required to reduce PSV infection by 50% from the infection containing no inhibitor was calculated. […] IC50 values were determined from a 10 point dose response curve using 3-4-fold serial dilution for each compound, which spans a concentration range >1000 fold.
These values are plotted against the molar compound concentrations using the standard four parameter logistic equation:
y=((V max*x^n)/(K^n+x^n)+Y2
Y2=minimum y n=slope factor
Vmax=maximum y x=compound concentration [M]
Experiment [2] relates to HIV pseudotyped virus (NL4-3 provirus, luciferase reporter), M184V, in U373 cells expressing human CD4 and CXCR4 or CCR5. The format is cell-based. As to conditions: PSV assay, luciferase signal after 3 days.

Broadly, the IC50 is the concentration that inhibits the measured activity by half.

`C#C[C@]1(CO)O[C@@H](n2cnc3c(N)nc(F)nc32)C[C@@H]1O` [EFdA, 4′-ethynyl-2-fluoro-2′-deoxyadenosine, reference compound]: the 50% inhibitory concentration (IC50) is 6.5 nM in experiment [1] and 35.1 nM in experiment [2].

For the compound `C#C[C@]1(CO)O[C@@H](n2cnc3c(N)nc(F)nc32)C[C@@H]1OC(=O)COCCOCCOC` [Example 5, (2R,3S,5R)-5-(6-amino-2-fluoro-9H-purin-9-yl)-2-ethynyl-2-(hydroxymethyl)tetrahydrofuran-3-yl 2-(2-(2-methoxyethoxy)ethoxy)acetate], the concentration for half-maximal inhibition (IC50) in experiment [1] amounted to 5.5 nM; in experiment [2], 22.1 nM.

On to `C#C[C@]1(CO)O[C@@H](n2cnc3c(N)nc(F)nc32)C[C@@H]1OC(=O)CCCCCCCCCCCCC(=O)O` [Example 3, 14-(((2R,3S,5R)-5-(6-amino-2-fluoro-9H-purin-9-yl)-2-ethynyl-2-(hydroxymethyl)tetrahydrofuran-3-yl)oxy)-14-oxotetradecanoic Acid], for which the concentration for half-maximal inhibition (IC50) in experiment [1] was 5.4 nM; in experiment [2], 24.4 nM.

Consider `C#C[C@]1(CO)O[C@@H](n2cnc3c(N)nc(F)nc32)C[C@@H]1OC(=O)COCCOC` [Example 4, (2R,3S,5R)-5-(6-amino-2-fluoro-9H-purin-9-yl)-2-ethynyl-2-(hydroxymethyl)tetrahydrofuran-3-yl 2-(2-methoxyethoxy)acetate], for which the 50% inhibitory concentration (IC50) in experiment [1] amounted to 3.8 nM; in experiment [2], 25.9 nM.

In the case of `C#C[C@]1(CO)O[C@@H](n2cnc3c(N)nc(F)nc32)C[C@@H]1OC(=O)CCCC(=O)OC(COC(=O)CCCCCCCCCCCCC)COC(=O)CCCCCCCCCCCCC` [Example 8, (2R,3S,5R)-5-(6-amino-2-fluoro-9H-purin-9-yl)-2-ethynyl-2-(hydroxymethyl)tetrahydrofuran-3-yl (1,3-bis(tetradecanoyloxy)propan-2-yl) glutarate], the half-maximal inhibitory concentration (IC50) in experiment [1] came out at 1860 nM; in experiment [2], 15000 nM.

On to `C#C[C@]1(CO)O[C@@H](n2cnc3c(N)nc(F)nc32)C[C@@H]1OC(=O)CNC(=O)CCCCCC` [Example 6, (2R,3S,5R)-5-(6-amino-2-fluoro-9H-purin-9-yl)-2-ethynyl-2-(hydroxymethyl)tetrahydrofuran-3-yl heptanoylglycinate], for which the IC50 in experiment [1] stood at 2.2 nM; in experiment [2], 11.4 nM.

For `C#C[C@]1(CO)O[C@@H](n2cnc3c(N)nc(F)nc32)C[C@@H]1OC(=O)CCCCCCCCC(=O)O` [Example 1, 10-(((2R,3S,5R)-5-(6-amino-2-fluoro-9H-purin-9-yl)-2-ethynyl-2-(hydroxymethyl)tetrahydrofuran-3-yl)oxy)-10-oxodecanoic Acid], the 50% inhibitory concentration (IC50) in experiment [1] stood at 78.4 nM; in experiment [2], 348 nM.

On to `C#C[C@]1(CO)O[C@@H](n2cnc3c(N)nc(F)nc32)C[C@@H]1OC(=O)CCCCCCCCCCCCCCCCCCC(=O)O` [Example 2, 20-(((2R,3S,5R)-5-(6-amino-2-fluoro-9H-purin-9-yl)-2-ethynyl-2-(hydroxymethyl)tetrahydrofuran-3-yl)oxy)-20-oxoicosanoic Acid], for which the IC50 in experiment [1] turned out to be 6.4 nM; in experiment [2], 35.7 nM.

With `C#C[C@]1(CO)O[C@@H](n2cnc3c(N)nc(F)nc32)C[C@@H]1OC(=O)CCCC(=O)OC(COC(=O)CCCCCC)COC(=O)CCCCCC` [Example 7, (2R,3S,5R)-5-(6-amino-2-fluoro-9H-purin-9-yl)-2-ethynyl-2-(hydroxymethyl)tetrahydrofuran-3-yl (1,3-bis(heptanoyloxy)propan-2-yl) glutarate], the concentration for half-maximal inhibition (IC50) came out at 232 nM in experiment [1] and 1190 nM in experiment [2].
